Reference: patent US9371319B2, “Pyrrolopyridineamino derivatives as MPS1 inhibitors” (priority 2011, dated 2016)

Target: T1, full length MPS1 (Homo sapiens, UniProt P33981)
T1 sequence (P33981 1-857): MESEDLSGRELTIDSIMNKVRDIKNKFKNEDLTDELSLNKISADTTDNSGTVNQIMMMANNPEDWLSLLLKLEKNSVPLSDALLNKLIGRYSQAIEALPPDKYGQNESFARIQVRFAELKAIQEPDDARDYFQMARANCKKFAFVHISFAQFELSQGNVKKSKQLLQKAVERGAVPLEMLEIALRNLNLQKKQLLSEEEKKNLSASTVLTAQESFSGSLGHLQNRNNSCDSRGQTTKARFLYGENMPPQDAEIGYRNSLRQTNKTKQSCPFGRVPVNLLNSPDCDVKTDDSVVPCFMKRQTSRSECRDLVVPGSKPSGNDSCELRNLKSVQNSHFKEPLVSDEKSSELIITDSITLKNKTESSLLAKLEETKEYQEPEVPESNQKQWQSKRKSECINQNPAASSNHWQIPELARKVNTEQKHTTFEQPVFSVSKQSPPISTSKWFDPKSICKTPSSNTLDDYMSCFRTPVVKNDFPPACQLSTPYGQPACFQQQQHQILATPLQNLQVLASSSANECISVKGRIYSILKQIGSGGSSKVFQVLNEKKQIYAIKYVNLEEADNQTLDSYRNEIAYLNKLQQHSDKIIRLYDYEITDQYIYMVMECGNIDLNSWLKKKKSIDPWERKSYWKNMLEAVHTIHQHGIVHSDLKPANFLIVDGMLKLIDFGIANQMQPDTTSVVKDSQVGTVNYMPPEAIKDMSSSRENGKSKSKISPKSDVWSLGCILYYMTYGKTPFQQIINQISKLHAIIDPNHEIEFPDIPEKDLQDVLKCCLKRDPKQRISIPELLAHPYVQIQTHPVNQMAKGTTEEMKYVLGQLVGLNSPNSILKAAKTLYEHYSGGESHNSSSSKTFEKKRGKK
Assay: biochemical
Procedure: Measurement of Inhibition of MPS1 Kinase
(5 μM), ATP (10 μM), either DMSO (1% v/v) or the test compound (in the range 0.25 nM-100 μM in 1% DMSO) and assay buffer (50 mM HEPES (pH 7.0), 0.02% NaN3, 0.01% BSA, 0.1 mM Orthovandate, […], 1 μM DTT, Roche protease inhibitor). The reaction was carried out for 60 min at room temperature and stopped by the addition of buffer (10 μl) containing 20 mM EDTA, 0.05% (v/v) Brij-35, in 0.1M HEPES-buffered saline (Free acid, Sigma, UK). The plate was read on a Caliper EZ reader II (Caliper Life Sciences).
The % inhibition of the compounds is calculated relative to the means of selected control wells. […] The % inhibitions at each concentration are then fitted to a 4 parameter logistic fit: y=(a+((b−a)/(1+((c/x^d)))) where a=asym min, b=asym max, c=IC50 and d=hill coefficient

| Structure (SMILES) | IC50 [µM] |
| --- | --- |
| COc1cc(C(=O)N2CC(OC)C2)ccc1Nc1cc2c(cn1)cc(-c1cnn(C)c1)n2C(=O)OC(C)(C)C [Example 12] | 0.007 |
| Cc1ncc(-c2ccc(Nc3cc4c(cn3)cc(-c3cnco3)n4C(=O)OC(C)C)c(Cl)c2)n1C [Example 106] | 0.002 |
| CN(C)C(=O)c1ccc(Nc2cc3c(cn2)cc(-c2cnn(C)c2)n3C(=O)OC2CCC2)c(Cl)c1 [Example 81] | 0.003 |
| COc1cc(C(=O)N2CCOCC2)ccc1Nc1cc2c(cn1)cc(-c1cnn(C)c1)n2C(=O)OC(C)(C)C [Example 10] | 0.005 |
| Cn1cc(-c2cc3cnc(Nc4ccc(-c5cncs5)cc4Cl)cc3n2C(=O)OC(C)(C)C)cn1 [Example 24] | 0.009 |
| Cc1ccc(-c2ccc(Nc3cc4c(cn3)cc(-c3cnn(C)c3)n4C(=O)OC(C)(C)C)c(Cl)c2)cn1 [Example 49] | 0.009 |
| COCCNC(=O)c1ccc(Nc2cc3[nH]c(-c4cnn(C)c4)cc3cn2)c(OC)c1 [Example 119, 3-Methoxy-N-(2-methoxyethyl)-4-(2-(1-methyl-1H-pyrazol-4-yl)-1H-pyrrolo[3,2-c]pyridin-6-ylamino)benzamide] | 0.019 |
| COc1ccc(Nc2cc3c(cn2)cc(-c2cn[nH]c2)n3C)cc1OC [Example 126, N-(3,4-dimethoxyphenyl)-1-methyl-2-(1H-pyrazol-4-yl)-1H-pyrrolo[3,2-c]pyridin-6-amine] | 0.026 |
| COc1cc(CN2CCCC2)ccc1Nc1cc2c(cn1)cc(-c1cnn(C)c1)n2C(=O)OC(C)(C)C [Example 33] | 0.016 |
| CCN(C)C(=O)c1ccc(Nc2cc3c(cn2)cc(-c2cnn(C)c2)n3C(=O)OC(C)(C)C)c(Cl)c1 [Example 39] | 0.004 |
| CC(C)OC(=O)n1c(-c2cnn(C)c2)cc2cnc(Nc3ccc(-c4cncn4C)cc3Cl)cc21 [Example 79] | 0.003 |
| Cc1ncc(-c2ccc(Nc3cc4c(cn3)cc(-c3cnn(C)c3)n4C(=O)OC(C)C)cc2)n1C [Example 108] | 0.002 |
| Cn1cc(-c2cc3cnc(Nc4ccc(-c5ccn(C)n5)cc4Cl)cc3[nH]2)cn1 [Example 124, N-(2-Chloro-4-(1-methyl-1H-pyrazol-3-yl)phenyl)-2-(1-methyl-1H-pyrazol-4-yl)-1H-pyrrolo[3,2-c]pyridin-6-amine] | 0.052 |
| CCCOC(=O)n1c(-c2cnn(C)c2)cc2cnc(Nc3ccc(-c4cnc(C)n4C)cc3Cl)cc21 [Example 88] | 0.002 |
| COc1cc(-c2cnc(C)n2C)ccc1Nc1cc2c(cn1)cc(-c1cnn(C)c1)n2C(=O)OC(C)C [Example 68] | 0.002 |
| COc1ncccc1Nc1cc2[nH]c(-c3cnn(C)c3)cc2cn1 [Example 112, N-(2-Methoxypyridin-3-yl)-2-(1-methyl-1H-pyrazol-4-yl)-1H-pyrrolo[3,2-c]pyridin-6-amine] | 0.021 |
| Cn1cc(-c2cc3cnc(Nc4ccc(-c5cncn5C)cc4Cl)cc3n2C2CCCC2)cn1 [Example 80] | 0.003 |
| CN(C)C(=O)c1ccc(Nc2cc3c(cn2)cc(-c2cnn(C)c2)n3-c2ncccn2)c(Cl)c1 [Example 93] | 0.094 |
| Cn1cc(-c2cc3cnc(Nc4cccc(OCC#N)c4)cc3n2C(=O)OC(C)(C)C)cn1 [Example 36] | 0.156 |
| COc1cc(-c2ccc(Nc3cc4c(cn3)cc(-c3cnn(C)c3)n4C(=O)OC(C)(C)C)c(Cl)c2)ccn1 [Example 46] | 0.075 |
| Cc1ncc(-c2ccc(Nc3cc4c(cn3)cc(-c3cnn(C)c3)n4C(=O)OC(C)(C)C)c(Cl)c2)n1C [Example 47] | 0.005 |

The next lines start with the values.

| IC50 [µM] | Structure (SMILES) |
| --- | --- |
| 0.007 | COc1cc(OC2CCN(C)CC2)ccc1Nc1cc2[nH]c(-c3cn[nH]c3)cc2cn1 [Example 166, N-(2-Methoxy-4-(1-methylpiperidin-4-yloxy)phenyl)-2-(1H-pyrazol-4-yl)-1H-pyrrolo[3,2-c]pyridin-6-amine] |
| 0.027 | CNC(=O)c1ccc(Nc2cc3[nH]c(-c4cnn(C)c4)cc3cn2)c(OC)c1 [Example 133, 3-Methoxy-N-methyl-4-(2-(1-methyl-1H-pyrazol-4-yl)-1H-pyrrolo[3,2-c]pyridin-6-ylamino)benzamide] |
| 0.14 | Fc1ccc(Nc2cc3[nH]c(-c4cn[nH]c4)cc3cn2)cc1 [Example 188, N-(4-fluorophenyl)-2-(1H-pyrazol-4-yl)-1H-pyrrolo[3,2-c]pyridin-6-amine] |
| 0.15 | N#Cc1ccc(Nc2cc3[nH]c(-c4cn[nH]c4)cc3cn2)cc1 [Example 177, 4-(2-(1H-pyrazol-4-yl)-1H-pyrrolo[3,2-c]pyridin-6-ylamino) benzonitrile] |
| 0.548 | Cn1cc(-c2ccc(Cl)c(Nc3cc4[nH]c(-c5cnn(C)c5)cc4cn3)c2)cn1 [Example 184, N-(2-Chloro-5-(1-methyl-1H-pyrazol-4-yl)phenyl)-2-(1-methyl-1H-pyrazol-4-yl)-1H-pyrrolo[3,2-c]pyridin-6-amine] |
| 0.031 | CNCc1ccc(Nc2cc3[nH]c(-c4cnn(C)c4)cc3cn2)c(OC)c1 [Example 138, N-(2-methoxy-4-((methylamino)methyl)phenyl)-2-(1-methyl-1H-pyrazol-4-yl)-1H-pyrrolo[3,2-c]pyridin-6-amine] |
| 0.055 | Cn1cc(-c2cc3cnc(Nc4ccc(-n5cncn5)cc4Cl)cc3[nH]2)cn1 [Example 129, N-(2-Chloro-4-(1H-1,2,4-triazol-1-yl)phenyl)-2-(1-methyl-1H-pyrazol-4-yl)-1H-pyrrolo[3,2-c]pyridin-6-amine] |
| 0.053 | COc1ccc(Nc2cc3[nH]c(-c4cnn(C)c4)cc3cn2)c(F)c1 [Example 155, N-(2-Fluoro-4-methoxyphenyl)-2-(1-methyl-1H-pyrazol-4-yl)-1H-pyrrolo[3,2-c]pyridin-6-amine] |
| 0.164 | COc1cc(C(F)(F)F)ccc1Nc1cc2[nH]c(-c3cnn(C)c3)cc2cn1 [Example 156, N-(2-Methoxy-4-(trifluoromethyl)phenyl)-2-(1-methyl-1H-pyrazol-4-yl)-1H-pyrrolo[3,2-c]pyridin-6-amine] |
| 0.021 | Cn1cc(-c2cc3cnc(Nc4ccc(C(=O)N5CC(F)(F)C5)cc4Cl)cc3[nH]2)cn1 [Example 153, (3-Chloro-4-((2-(1-methyl-1H-pyrazol-4-yl)-1H-pyrrolo[3,2-c]pyridin-6-yl)amino)phenyl)(3,3-difluoroazetidin-1-yl)methanone] |
| 0.018 | Cn1cc(-c2cc3cnc(Nc4ccc(N5CCCC5=O)cc4Cl)cc3[nH]2)cn1 [Example 136, 1-(3-chloro-4-((2-(1-methyl-1H-pyrazol-4-yl)-1H-pyrrolo[3,2-c]pyridin-6-yl)amino)phenyl)pyrrolidin-2-one] |
| 0.005 | Cc1ncc(-c2ccc(Nc3cc4[nH]c(-c5cnn(C)c5)cc4cn3)c(Cl)c2)n1C [Example 152, N-(2-Chloro-4-(1,2-dimethyl-1H-imidazol-5-yl)phenyl)-2-(1-methyl-1H-pyrazol-4-yl)-1H-pyrrolo[3,2-c]pyridin-6-amine] |
| 0.011 | CCN(C)C(=O)c1ccc(Nc2cc3[nH]c(-c4cnn(C)c4)cc3cn2)c(Cl)c1 [Example 144, 3-Chloro-N-ethyl-N-methyl-4-(2-(1-methyl-1H-pyrazol-4-yl)-1H-pyrrolo[3,2-c]pyridin-6-ylamino)benzamide] |
| 0.005 | Cn1cncc1-c1ccc(Nc2cc3[nH]c(-c4cnco4)cc3cn2)c(Cl)c1 [Example 185, N-(2-Chloro-4-(1-methyl-1H-imidazol-5-yl)phenyl)-2-(oxazol-5-yl)-1H-pyrrolo[3,2-c]pyridin-6-amine] |
| 0.002 | CS(=O)(=O)c1ccc(Nc2cc3[nH]c(-c4cn[nH]c4)cc3cn2)c(Cl)c1 [Example 154, N-(2-chloro-4-(methylsulfonyl)phenyl)-2-(1H-pyrazol-4-yl)-1H-pyrrolo[3,2-c]pyridin-6-amine] |
| 0.043 | COc1cc(CN)ccc1Nc1cc2[nH]c(-c3cnn(C)c3)cc2cn1 [Example 140, N-(4-(Aminomethyl)-2-methoxyphenyl)-2-(1-methyl-1H-pyrazol-4-yl)-1H-pyrrolo[3,2-c]pyridin-6-amine] |
| 0.001 | Cc1ncc(-c2ccc(Nc3cc4[nH]c(-c5cnco5)cc4cn3)c(Cl)c2)n1C [Example 186, N-(2-Chloro-4-(1,2-dimethyl-1H-imidazol-5-yl)phenyl)-2-(oxazol-5-yl)-1H-pyrrolo[3,2-c]pyridin-6-amine] |
